Structures are written as SMILES.

Series [1] is described as follows: naltrexone release from payloaded matrices (in vitro release). It counts as physicochemical. The following applies: in contrast to the hydrochloride form. The method, then: The number of days of release are shown on the horizontal axis (X axis). The cumulative percentage of naltrexone release is shown on the vertical axis (Y axis). […] Release was measured under conditions of about 37 degrees Celsius. Before release was measured, steps had been taken to incorporate (payload) naltrexone into the matrices.
The number of days of release are shown on the horizontal axis (X axis). The cumulative percentage of naltrexone release is shown on the vertical axis (Y axis). Before release was measured, steps had been taken to incorporate (payload) naltrexone into the matrices.
Exemplary Formula #1—PBS Buffer Containing 0.01% Sodium Azide as Suspension and Release Medium: • 1. To a 1 L volumetric flask, add the contents of 1 package of ready-to-use powder for PBS • 2. Add sodium azide ([…]) • 3. Add Millipore water to the calibration mark • 4. Dissolve all solids • 5. Store at 8 degrees celsius (max)

For series [2] the following is noted: in vivo, cited from earlier work.
For series [3] the following is noted: low dosages, about 3-5 mg/day; cited from earlier work.
The test system of the next series is opioid receptor. The settings on record: cited from earlier work.

Take `O=C1CC[C@@]2(O)[C@H]3Cc4ccc(O)c5c4[C@@]2(CCN3CC2CC2)[C@H]1O5` [naltrexone base, naltrexone]: the release profiles entry in series [1] is given as “meet preferred target criteria”.
Regarding `O=C1CC[C@@]2(O)[C@H]3Cc4ccc(O)c5c4[C@@]2(CCN3CC2CC2)[C@H]1O5` [naltrexone], the oral bioavailability entry in series [2] (po) was “good oral bioavailability”. Also, the duration of effect entry in series [2] is “can last for a day”. Also, in series [3], the symptom severity result was “reduce symptom severity”. For the same molecule, in the series on opioid receptor, the “potency relative to naloxone” value is “twice the potency”.

Values taken from patent US20170065579A1, “Sustained Release Low Dose Formulations and Uses Thereof” (priority 2015, published 2017).
